Results from US11530216B2, “Deuterated colony stimulating factor-1 receptor (CSF-1R) inhibitors” (Genzyme Corporation, priority 2020, dated 2022).
Where two headings read alike, the source gives them in different places.

Tests used:
[1] = Metabolite profiles in human cryopreserved hepatocytes in absence and presence of AO inhibitor hydralazine; format: in vitro ADME; conditions: 2 hours; for % of Total (integrated MS peak areas), Human Hepatocytes: absence of hydralazine; for % of Total (integrated MS peak areas), Human Hepatocytes + Hydralazine: hydralazine 10 μM
Method: After study sampling, the remaining samples from triplicate incubations were combined and processed for the metabolite identification study.
(§1) To each sample was added equal amounts of ice-cold acetonitrile (v/v) and the samples were then vortex mixed. Following centrifugation at approximately 13,000 rpm for 10 minutes, the supernatants were concentrated under nitrogen flow at 35° C. until approximately 0.1-0.2 mL of extract remained. Prior to analysis, the remaining extract was centrifuged at approximately 13,000 rpm for 15 minutes. The supernatant was injected into LC/UV/MS for analysis.
Metabolite identification was performed on UPLC (Thermo Vanquish) coupled with UV (Thermo Vanquish) and mass spectrometry (MS) detection (Thermo Orbitrap ID-X).
The mass peak areas were used for metabolite profiling, due to low sample concentrations. […] Metabolites having a peak area that accounts for equal to or more than 0.1% of the toral integrated MS peaks areas are reported in Table 1 below.
The metabolites are characterized based on their accurate masses (tolerance ≤5 ppm), mass fragmentation patterns, and comparison with other in vitro studies.
After study sampling, the remaining samples from triplicate incubations were combined and processed for metabolite identification study.
as §1, with “were” for “were then”, “was” for “were”
The mass peak areas are used for metabolite profiling, due to low sample concentrations. […] Metabolites having a peak area that accounts for equal to or more than 0.1% of the toral integrated MS peaks areas are reported in Table 2 below.
The metabolites are characterized based on their accurate masses (tolerance≤5 ppm), mass fragmentation patterns, and comparison with other in vitro studies.

Caco-2 efflux assay = format: in vitro ADME; conditions: human
Method: Caco-2 permeability and efflux assays were performed in cell-based permeability model using Caco-2/TC7 cells. For permeability assays, Caco-2/TC7 cells were seeded on to Millipore Millicell 96 and for efflux assays, 24-well plates were used. The plates with cells were ready to use between 21-25 days of culturing. Both permeability and efflux assays were performed using the TECAN automated liquid handling platform. For permeability assays, test compounds were prepared at 20 μM test concentrations in permeability assay buffer (10 mM HEPES in HBSS buffer, pH 6.5) containing 0.5% BSA. Basolateral permeability buffer (pH 7.4) contains 5% BSA. For efflux assays, test compounds were prepared at 1 μM test concentrations in permeability assay buffer (10 mM HEPES in HBSS buffer, pH 7.4) containing 0.5% BSA. For efflux assays, the basolateral permeability buffer (pH 7.4) contained 0.5% BSA. The permeability assay was initiated by adding 20 μM test solution to apical side of plate containing Caco-2/TC7 cells. In the efflux assay, 1 μM test compound was added to an apical compartment for apical to basolateral (A to B) permeability determination. For basolateral to apical (B to A) permeability determination, the test compound was added to the basolateral side. The plate was incubated for 90 min under constant shaking at 37° C. At the end of the incubation period, samples taken were analyzed using high pressure liquid chromatography with tandem mass spectrometry. For each assay, apparent permeability (Papp) and recovery was calculated from mass spectrometry data. For permeability assay, Papp values are reported as numbers×10^−07 cm/s. For efflux assays, the efflux ratio is calculated using Papp (basolateral to apical) to Papp (apical to basolateral), in addition to recovery values.

CYP3A4 = CYP3A4 (Homo sapiens (Human), UniProt P08684); test: CYP inhibition in human liver microsomes, CYP3A4; format: in vitro ADME
Method: The objective of this assay method was to determine the inhibitory potential of test articles, in vitro, against specific cytochrome P450 (CYP) enzymes, using human liver microsomes (HLMs). The test compounds were diluted from pure DMSO stocks to a final test concentration range of 10 μM-0.07 μM in a 0.5% DMSO solution. […] After incubation, the samples were extracted, and protein precipitated in acetonitrile containing 0.1% formic acid. The samples were centrifuged to remove excess protein, and were analyzed by LDTD/MS/MS to determine IC50 values. Key concentrations of substrates were as follows: CYP2D6 Substrate—Dextromethorphan at 10 μM. CYP3A4 Substrates—Testosterone at 60 μM, and Midazolam at 2 μM. Dextromethorphan and testosterone were incubated with the test compounds for 30 minutes each. Midazolam was incubated with the test compounds for 10 minutes.

[2] = Monkey hepatocyte intrinsic clearance; format: in vitro ADME; conditions: 1 μM, 0.5 million cells/mL
Method: (§2) Incubations were performed in 0.5 million hepatocytes cells/mL at 1 μM concentration of test compound in duplicate with rat, human, dog, monkey, or mouse hepatocytes, and the concentration-time course of test compound depletion was determined after withdrawing samples from the incubation at assay time points followed by liquid chromatography with tandem mass spectrometry analysis. An organic solvent was used to terminate incubations.

[3] = Human liver cytosol intrinsic clearance; format: in vitro ADME; conditions: human, cytosol
Method: as §2, with “1 mg/mL human liver cytosol with high aldehyde oxidase (AO)/xanthine oxidase (XO) activity or 2.5 mg/mL human liver S-9 fraction with high AO/XO activity” for “0.5 million hepatocytes cells/mL”, “duplicate,” for “duplicate with rat, human, dog, monkey, or mouse hepatocytes,”
(§3) These available known AO substrates along with the test compounds were analyzed using three in vitro systems (pooled human liver cytosol, liver S-9 fractions and human hepatocytes isolated from livers perfused with HTK media). Scaled unbound intrinsic clearances were calculated for the test compounds/new chemical entities and were compared to the in vivo unbound intrinsic clearances of the known AO substrates.

[4] = Rat hepatocyte intrinsic clearance; format: in vitro ADME; conditions: 1 μM, 0.5 million cells/mL
Method: as §2

[5] = Mouse hepatocyte intrinsic clearance; format: in vitro ADME; conditions: 1 μM, 0.5 million cells/mL
Method: as §2

[6] = Human liver S-9 intrinsic clearance; format: in vitro ADME; conditions: human; for CLint scaled at 1 μM: s9
Method: as §2, with “1 mg/mL human liver cytosol with high aldehyde oxidase (AO)/xanthine oxidase (XO) activity or 2.5 mg/mL human liver S-9 fraction with high AO/XO activity” for “0.5 million hepatocytes cells/mL”, “duplicate,” for “duplicate with rat, human, dog, monkey, or mouse hepatocytes,”
as §3

[7] = system: MCP-1 production in BV2 murine microglial cells; test: MCP-1 ELISA, BV2 microglial cells after CSF-1 stimulation; format: cell-based; conditions: Mus musculus, BV-2, 30 min pre-treatment, 100 ng/mL M-CSF 24 hours
Method: Microglia cells were allowed to rest overnight at 37° C., 5% CO2. […] After stimulation, the culture supernatant was removed from each well and aliquoted into two different 96-well plates for subsequent ELISA assays.

[8] = midazolam 2 μM, 10 min, read-out: CYP inhibition mean IC50 (INH) Isoform: CYP3A4 Substrate: midazolam
[9] = testosterone 60 μM, 30 min, read-out: CYP inhibition mean IC50 (INH) Isoform: CYP3A4 Substrate: testosterone
[10] = Human Liver Cytosol Intrinsic Clearance _1
[11] = Human Liver Cytosol Intrinsic Clearance _2
[12] = s9, Human Liver S-9 Intrinsic Clearance _1
[13] = s9, Human Liver S-9 Intrinsic Clearance _2
[14] = incubation of Compound 24, 1 μM

Sequence of CYP3A4 (P08684 whole entry): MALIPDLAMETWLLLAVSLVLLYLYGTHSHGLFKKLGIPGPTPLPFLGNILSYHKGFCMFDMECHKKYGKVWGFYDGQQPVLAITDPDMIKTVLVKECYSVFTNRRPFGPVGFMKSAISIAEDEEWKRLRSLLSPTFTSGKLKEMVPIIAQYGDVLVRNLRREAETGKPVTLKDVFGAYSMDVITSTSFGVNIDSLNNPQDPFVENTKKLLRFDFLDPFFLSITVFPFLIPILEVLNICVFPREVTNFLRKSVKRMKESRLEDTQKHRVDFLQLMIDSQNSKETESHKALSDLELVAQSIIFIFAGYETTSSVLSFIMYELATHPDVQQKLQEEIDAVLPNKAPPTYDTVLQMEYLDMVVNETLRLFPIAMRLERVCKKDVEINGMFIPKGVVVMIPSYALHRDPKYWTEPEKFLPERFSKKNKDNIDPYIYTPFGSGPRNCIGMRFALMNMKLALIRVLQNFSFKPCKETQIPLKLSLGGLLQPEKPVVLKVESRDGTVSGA

SMILES	% of Total (integrated MS peak areas), Human Hepatocytes ([1]; incubation of Compound 6, 1 μM)	% of Total (integrated MS peak areas), Human Hepatocytes + Hydralazine ([1]; incubation of Compound 6, 1 μM)	Papp A→B at 90 min, 1 μM (Caco-2 efflux assay)	Papp B→A at 90 min, 1 μM (Caco-2 efflux assay)	recovery at 90 min, 1 μM (Caco-2 efflux assay; read-out: Recovery A to B)	recovery at 90 min, 1 μM (Caco-2 efflux assay; read-out: Recovery B to A)	IC50 (CYP3A4; [8])	IC50 (CYP3A4; [9])	Monkey Hepatocyte Intrinsic Clearance [2]	CLint scaled at 1 μM [3]	microsomal CLint at 1 μM [3, 10]	microsomal CLint at 1 μM [3, 11]	Rat Hepatocyte Intrinsic Clearance [4]	Mouse Hepatocyte Intrinsic Clearance [5]	CLint scaled at 1 μM [6]	microsomal CLint at 1 μM [6, 12]	microsomal CLint at 1 μM [6, 13]	IC50 [7]	% of Total (integrated MS peak areas), Human Hepatocytes [1, 14]	% of Total (integrated MS peak areas), Human Hepatocytes + Hydralazine [1, 14]
[2H]c1nc2cccnc2n1Cc1cc(OC)c2c(c1)O[C@@H](C)[C@H](c1ccc(OC)nc1)O2 [Compound 6, 3-(((2S,3S)-8-methoxy-2-(6-methoxypyridin-3-yl)-3-methyl-2,3-dihydrobenzo[b][1,4]dioxin-6-yl)methyl)-3H-imidazo[4,5-b]pyridine-2-d]	87.1%	92.0%	13.5 ×10⁻⁶ cm/s	29.2 ×10⁻⁶ cm/s	88%	82.5%	> 10 µM	> 10 µM	27.2 μL/min/10^7 cells	3.9 mL/min/kg	1.5 µL/min/mg	2.2 µL/min/mg	9.00 μL/min/10^7 cells	6.63 μL/min/10^7 cells	3.6 mL/min/kg	< 1.1 µL/min/mg	< 1.1 µL/min/mg	0.0288 to 0.0365 µM		
COc1ccc(C2Oc3c(OC)cc(Cn4cnc5cccnc54)cc3O[C@H]2C)cn1 (stereo partly drawn) [Compound 24]			12.5 ×10⁻⁶ cm/s	25.6 ×10⁻⁶ cm/s	93%	94%	> 10 µM	> 10 µM	>92 μL/min/10^7 cells	10.5 mL/min/kg	5.1 µL/min/mg	5 µL/min/mg	8.72 μL/min/10^7 cells	9.36 μL/min/10^7 cells	9 mL/min/kg	3.06 µL/min/mg	2.76 µL/min/mg	0.0288 to 0.0365 µM	72.2%	90.9%
